Measured values as given in ChEMBL document CHEMBL3259563, “The discovery of potent and selective non-steroidal glucocorticoid receptor modulators, suitable for inhalation” (Bioorg Med Chem Lett, 2014).
≈ marks a conversion by molar mass, not a printed value.

What was measured:
Hepatocyte [1] = assay: Intrinsic clearance in human hepatocytes; type: ADME, cell-based
[2] = Intrinsic clearance in rat microsomes; type: ADME, Microsome
Hepatocyte [3] = assay: Intrinsic clearance in rat hepatocytes; type: ADME, cell-based
[4] = Thermodynamic solubility of the amorphous compound in 0.1 M phosphate buffer at pH 7.4 at 25 degC after 24 hrs; type: physicochemical; settings: read-out: Therm_solubility
[5] = Thermodynamic solubility of the crystalline compound in 0.1 M phosphate buffer at pH 7.4 at 25 degC after 24 hrs; type: physicochemical; settings: read-out: Therm_solubility
[6] = Intrinsic clearance in human microsomes; type: ADME, Microsome
Glucocorticoid receptor = target: T1, Glucocorticoid receptor (Homo sapiens, UniProt P04150)
T1 sequence (P04150 whole entry): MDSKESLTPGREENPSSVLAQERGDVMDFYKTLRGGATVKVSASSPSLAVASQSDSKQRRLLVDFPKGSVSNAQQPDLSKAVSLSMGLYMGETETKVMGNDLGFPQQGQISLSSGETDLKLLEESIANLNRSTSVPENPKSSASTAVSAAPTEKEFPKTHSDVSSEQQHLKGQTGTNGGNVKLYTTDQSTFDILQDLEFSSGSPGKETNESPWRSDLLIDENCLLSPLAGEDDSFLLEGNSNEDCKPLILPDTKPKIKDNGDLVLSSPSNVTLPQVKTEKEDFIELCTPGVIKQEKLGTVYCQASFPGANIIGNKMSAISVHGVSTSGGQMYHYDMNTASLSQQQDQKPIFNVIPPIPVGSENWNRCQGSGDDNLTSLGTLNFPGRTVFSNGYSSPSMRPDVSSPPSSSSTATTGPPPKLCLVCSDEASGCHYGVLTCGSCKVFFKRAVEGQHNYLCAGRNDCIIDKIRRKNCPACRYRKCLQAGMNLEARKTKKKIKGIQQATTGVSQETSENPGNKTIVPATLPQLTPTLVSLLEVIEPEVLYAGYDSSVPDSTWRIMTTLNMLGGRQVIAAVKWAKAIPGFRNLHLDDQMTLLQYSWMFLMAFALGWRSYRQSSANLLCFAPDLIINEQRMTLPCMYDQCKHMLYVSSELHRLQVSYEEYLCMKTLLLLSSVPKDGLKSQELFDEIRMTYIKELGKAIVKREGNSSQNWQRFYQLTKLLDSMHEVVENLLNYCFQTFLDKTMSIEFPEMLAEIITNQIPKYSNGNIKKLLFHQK
Description: Agonist activity at glucocorticoid receptor in human Chago K1 cells assessed as gene transrepression by Lac-Z reporter gene assay

Estrogen receptor = target: T2, Estrogen receptor (Homo sapiens, UniProt P03372); assay: Binding affinity to ER-alpha (unknown origin)
T2 sequence (P03372 whole entry): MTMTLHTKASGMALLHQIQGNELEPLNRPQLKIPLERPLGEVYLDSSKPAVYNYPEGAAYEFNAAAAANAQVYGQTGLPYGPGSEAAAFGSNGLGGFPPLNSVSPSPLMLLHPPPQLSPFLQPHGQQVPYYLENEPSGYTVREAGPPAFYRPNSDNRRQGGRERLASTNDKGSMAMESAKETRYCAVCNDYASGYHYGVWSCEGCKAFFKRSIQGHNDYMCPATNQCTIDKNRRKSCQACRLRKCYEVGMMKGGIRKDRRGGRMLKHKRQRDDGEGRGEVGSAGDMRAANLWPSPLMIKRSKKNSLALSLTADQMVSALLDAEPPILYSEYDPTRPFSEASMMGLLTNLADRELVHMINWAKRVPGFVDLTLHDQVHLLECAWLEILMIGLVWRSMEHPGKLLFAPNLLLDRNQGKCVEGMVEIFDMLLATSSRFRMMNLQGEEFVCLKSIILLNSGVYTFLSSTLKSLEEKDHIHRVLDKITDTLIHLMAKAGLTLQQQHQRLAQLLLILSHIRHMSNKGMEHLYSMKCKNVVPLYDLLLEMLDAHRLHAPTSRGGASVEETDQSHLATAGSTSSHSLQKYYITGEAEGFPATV

Lung = assay: Drug uptake in intratracheally dosed rat lung after 4 hrs; type: ADME, organism-based; settings: in vivo, inhaled_or_intranasal

Compound: Cc1nn(C2CCCC2)c(C)c1S(=O)(=O)N[C@@H](C)CNc1cccc2c1cnn2-c1ccc(F)nc1
- CLH (Hepatocyte [1]): 47 µL/min
- microsomal CLint [2]: > 200 µL/min/mg
- CLH (Hepatocyte [3]): 33 µL/min
- solubility thermodynamic at 24 h [4]: 22 µM (≈ 11.3 µg/mL)
- solubility thermodynamic at 24 h [5]: 1.5 µM (≈ 0.767 µg/mL)
- microsomal CLint [6]: > 200 µL/min/mg
- IC50 (Glucocorticoid receptor): 7.2 nM
- IC50 (Estrogen receptor): > 5 µM
- Drug uptake (Lung): Active
